# Experiments:
# [1] = system: blackgrass; assay: Test A preemergence; format: in vivo, Alopecurus myosuroides
# Outline: (§1)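 Loam/sand soil; pre-em directed soil spray at planting, post-em spray at 1–2 leaf (2–10 cm). Compound in non-phytotoxic solvent + surfactant. Greenhouse 10 d; visual injury vs untreated, 0 = no effect, 100 = complete control.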
# [2] = system: corn; assay: Test A preemergence; format: in vivo, Zea mays
# Outline: as §1
# [3] = system: foxtail, giant; assay: Test A preemergence; format: in vivo, Setaria faberi
# Outline: as §1
# [4] = system: goosegrass; assay: Test A preemergence; format: in vivo, Eleusine indica
# Outline: as §1
# [5] = system: kochia; assay: Test A preemergence; format: in vivo, Bassia scoparia
# Outline: as §1
# [6] = system: oat, wild; assay: Test A preemergence; format: in vivo, Avena fatua
# Outline: as §1
# [7] = system: pigweed, palmer; assay: Test A preemergence; format: in vivo, Amaranthus palmeri
# Outline: as §1
# [8] = system: ragweed; assay: Test A preemergence; format: in vivo, Ambrosia artemisiifolia
# Outline: as §1
# [9] = system: ryegrass, Italian; assay: Test A preemergence; format: in vivo, Lolium multiflorum
# Outline: as §1
# [10] = system: soybean; assay: Test A preemergence; format: in vivo, Glycine max
# Outline: as §1
# [11] = system: wheat; assay: Test A preemergence; format: in vivo, Triticum aestivum
# Outline: as §1
# [12] = system: blackgrass; assay: Test A postemergence; format: in vivo, Alopecurus myosuroides
# Outline: as §1
# [13] = system: corn; assay: Test A postemergence; format: in vivo, Zea mays; conditions: postemergence, 10 days, visual injury, 0 to 100 scale (0 no effect, 100 complete control)
# Outline: as §1
# [14] = system: foxtail, giant; assay: Test A postemergence; format: in vivo, Setaria faberi; conditions: postemergence, 10 days, visual injury, 0 to 100 scale (0 no effect, 100 complete control)
# Outline: as §1
# [15] = system: goosegrass; assay: Test A postemergence; format: in vivo, Eleusine indica; conditions: postemergence, 10 days, visual injury, 0 to 100 scale (0 no effect, 100 complete control)
# Outline: as §1
# [16] = system: kochia; assay: Test A postemergence; format: in vivo, Bassia scoparia; conditions: postemergence, 10 days, visual injury, 0 to 100 scale (0 no effect, 100 complete control)
# Outline: as §1
# [17] = system: oat, wild; assay: Test A postemergence; format: in vivo, Avena fatua; conditions: 500 g ai/ha, postemergence, 10 days, visual injury, 0 to 100 scale (0 no effect, 100 complete control)
# Outline: as §1
# [18] = system: pigweed, palmer; assay: Test A postemergence; format: in vivo, Amaranthus palmeri; conditions: 500 g ai/ha, postemergence, 10 days, visual injury, 0 to 100 scale (0 no effect, 100 complete control)
# Outline: as §1
# [19] = system: ragweed; assay: Test A postemergence; format: in vivo, Ambrosia artemisiifolia; conditions: 500 g ai/ha, postemergence, 10 days, visual injury, 0 to 100 scale (0 no effect, 100 complete control)
# Outline: as §1
# [20] = system: ryegrass, Italian; assay: Test A postemergence; format: in vivo, Lolium multiflorum; conditions: 500 g ai/ha, postemergence, 10 days, visual injury, 0 to 100 scale (0 no effect, 100 complete control)
# Outline: as §1
# [21] = system: soybean; assay: Test A postemergence; format: in vivo, Glycine max; conditions: 500 g ai/ha, postemergence, 10 days, visual injury, 0 to 100 scale (0 no effect, 100 complete control)
# Outline: as §1
# [22] = system: wheat; assay: Test A postemergence; format: in vivo, Triticum aestivum; conditions: 500 g ai/ha, postemergence, 10 days, visual injury, 0 to 100 scale (0 no effect, 100 complete control)
# Outline: as §1
# [23] = system: horseweed; assay: Test A postemergence; format: in vivo, Erigeron canadensis; conditions: postemergence, 10 days, visual injury, 0 to 100 scale (0 no effect, 100 complete control)
# Outline: as §1
# [24] = system: barnyardgrass; assay: Test B flooded paddy test; format: in vivo, Echinochloa crus-galli; conditions: 250 g ai/ha, Flood, 13 days, 0 to 100 scale (0 no effect, 100 complete control)
# Outline: (§2)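 Percent weed or crop control, judged by eye on a 0–100 scale 13 days post-treatment, reflects compound added to a 3 cm flood maintained over 2-leaf plants in the greenhouse. Missing entries are marked with a dash.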
# [25] = system: ducksalad; assay: Test B flooded paddy test; format: in vivo, Heteranthera limosa; conditions: 250 g ai/ha, Flood, 13 days, 0 to 100 scale (0 no effect, 100 complete control)
# Outline: as §2
# [26] = system: rice; assay: Test B flooded paddy test; format: in vivo, Oryza sativa; conditions: 250 g ai/ha, Flood, 13 days, 0 to 100 scale (0 no effect, 100 complete control)
# Outline: as §2
# [27] = system: sedge, umbrella; assay: Test B flooded paddy test; format: in vivo, Cyperus difformis; conditions: 250 g ai/ha, Flood, 13 days, 0 to 100 scale (0 no effect, 100 complete control)
# Outline: as §2
# [28] = 125 g ai/ha, visual injury after 10 days, 0 to 100 scale, 0 is no effect, 100 is complete control
# [29] = 500 g ai/ha, 0 to 100 scale (0 no effect, 100 complete control), 10 days
compound,measurement,setting,value
CCc1ccc(-n2cncn2)cc1C(=O)N1C[C@H](C)Oc2c(Cl)cccc21 [Compound 79],"Plant response rating, Blackgrass",[1]; [28],50
same,"Plant response rating, Blackgrass",[1]; [29],70
same,"Plant response rating, Corn",[2]; [28],20
same,"Plant response rating, Corn",[2]; [29],40
same,"Plant response rating, Foxtail, Giant",[3]; [28],100
same,"Plant response rating, Foxtail, Giant",[3]; [29],100
same,"Plant response rating, Goosegrass",[4]; [28],100
same,"Plant response rating, Goosegrass",[4]; [29],100
same,"Plant response rating, Kochia",[5]; [28],20
same,"Plant response rating, Kochia",[5]; [29],40
same,"Plant response rating, Oat, Wild",[6]; [28],90
same,"Plant response rating, Oat, Wild",[6]; [29],80
same,"Plant response rating, Pigweed, Palmer",[7]; [28],40
same,"Plant response rating, Pigweed, Palmer",[7]; [29],100
same,"Plant response rating, Ragweed",[8]; [28],0
same,"Plant response rating, Ragweed",[8]; [29],30
same,"Plant response rating, Ryegrass, Italian",[9]; [28],60
same,"Plant response rating, Ryegrass, Italian",[9]; [29],100
same,"Plant response rating, Soybean",[10]; [28],60
same,"Plant response rating, Soybean",[10]; [29],90
same,"Plant response rating, Wheat",[11]; [28],10
same,"Plant response rating, Wheat",[11]; [29],50
same,"Plant response rating, Blackgrass","[12]; 125 g ai/ha, postemergence, 10 days, visual injury, 0 to 100 scale (0 no effect, 100 complete control)",80
same,"Plant response rating, Blackgrass","[12]; 500 g ai/ha, Postemergence, 0 to 100 scale",80
same,"Plant response rating, Corn",[13]; 125 g ai/ha,40
same,"Plant response rating, Corn",[13]; 500 g ai/ha,80
same,"Plant response rating, Foxtail, Giant",[14]; 125 g ai/ha,90
same,"Plant response rating, Foxtail, Giant",[14]; 500 g ai/ha,90
same,"Plant response rating, Goosegrass",[15]; 125 g ai/ha,20
same,"Plant response rating, Goosegrass",[15]; 500 g ai/ha,80
same,"Plant response rating, Kochia",[16]; 125 g ai/ha,30
same,"Plant response rating, Kochia",[16]; 500 g ai/ha,60
same,"Plant response rating, Oat, Wild",[17],80
same,"Plant response rating, Pigweed, Palmer",[18],90
same,"Plant response rating, Ragweed",[19],50
same,"Plant response rating, Ryegrass, Italian",[20],100
same,"Plant response rating, Soybean",[21],100
same,"Plant response rating, Wheat",[22],50
same,"Plant response rating, Horseweed",[23]; 125 g ai/ha,0
same,"Plant response rating, Horseweed",[23]; 500 g ai/ha,20
same,"Plant response rating, Barnyardgrass",[24],0
same,"Plant response rating, Ducksalad",[25],45
same,"Plant response rating, Rice",[26],0
same,"Plant response rating, Sedge, Umbrella",[27],98
